From patent US6274715A, “Tricyclic erythromycin derivatives” (priority 1997, dated 2001)
In brackets after ≈: the same amount, converted by molar mass. Read-outs that look alike come from different tables or passages of the source.

Legend:
Type in all cases: cell-based
STR[…] 508 = assay: In vitro antibacterial activity, MIC, BHI agar dilution; details: S. agalactiae CMX 508, unit assumed
Protocol: (§1) Representative compounds of the present invention were assayed in vitro for antibacterial activity as follows: Twelve petri dishes containing successive aqueous dilutions of the test compound mixed with 10 mL of sterilized Brain Heart Infusion (BHI) agar (Difco 0418-01-5) were prepared. Each plate was inoculated with 1:100 (or 1:10 for slow-growing strains, such as Micrococcus and Streptococcus) dilutions of up to 32 different microorganisms, using a Steers replicator block. The inoculated plates were incubated at 35-37° C. for 20 to 24 hours. In addition, a control plate, using BHI agar containing no test compound, was prepared and incubated at the beginning and end of each test.
(§2) An additional plate containing a compound having known susceptibility patterns for the organisms being tested and belonging to the same antibiotic class as the test compound was also prepared and incubated as a further control, as well as to provide test-to-test comparability. Erythromycin A was used for this purpose.
(§3) After incubation, each plate was visually inspected. The minimum inhibitory concentration (MIC) was defmed as the lowest concentration of drug yielding no growth, a slight haze, or sparsely isolated colonies on the inoculum spot as compared to the growth control.

M[…] ATCC 9341 = assay: as above; details: M. luteus ATCC 9341, unit assumed
Protocol: as §1, §2, §3

EN[…] ATCC 8043 = assay: as above; details: E. faecium ATCC 8043, unit assumed
Protocol: as §1, §2, §3

[1] = tested on: PSEUDOMONAS AERUGINOSA DPHD-5263; assay: as above; details: P. aeruginosa DPHD-5263, unit assumed
[2] = tested on: STAPHYLOCOCCUS AUREUS NCTC10649M; assay: as above; details: S. aureus NCTC10649M, unit assumed
[3] = tested on: PROVIDENCIA STUARTII CMX 640; details: P. stuartii CMX 640; BHI agar; unit assumed
[4] = tested on: STREPTOCOCCUS PYOGENES 930; assay: In vitro antibacterial activity, MIC, BHI agar dilution; details: S. pyogenes 930, unit assumed
PSEUDOMONAS CEPACIA 296I = assay: as above; details: P. cepacia 296I, unit assumed
[5] = tested on: STREPTOCOCCUS PYOGENES PIU 2548; assay: as above
ESCHERICHIA COLI KNK 437 = details: E. coli KNK 437; BHI agar; unit assumed
[6] = tested on: PSEUDOMONAS AERUGINOSA K799/WT; assay: In vitro antibacterial activity, MIC, BHI agar dilution; details: P. aeruginosa K799/WT
CANDIDA ALBICANS CCH 442 = assay: as above; details: C. albicans CCH 442, unit assumed
[7] = tested on: STAPHYLOCOCCUS AUREUS ATCC 6538P; assay: as above; details: S. aureus ATCC 6538P, 35-37° C., 20 to 24 hours, listed as Ex 35, unit assumed
[8] = tested on: STAPHYLOCOCCUS AUREUS 1775; assay: as above; details: S. aureus 1775, unit assumed
ESCHERICHIA COLI JUHL = details: E. coli JUHL, BHI agar, unit assumed
[9] = tested on: ENTEROBACTER AEROGENES ATCC 13048; assay: In vitro antibacterial activity, MIC, BHI agar dilution
[10] = tested on: STAPHYLOCOCCUS AUREUS A-5278; assay: as above; details: S. aureus A-5278, unit assumed
[11] = tested on: PSEUDOMONAS AERUGINOSA DPHD-2862; assay: as above; details: P. aeruginosa DPHD-2862, unit assumed
[12] = tested on: PSEUDOMONAS AERUGINOSA 5007; assay: as above; details: P. aeruginosa 5007, unit assumed
[13] = tested on: MYCOBACTERIUM SMEGMATIS ATCC 114; assay: as above; details: M. smegmatis ATCC 114, unit assumed
[14] = tested on: STAPHYLOCOCCUS EPIDERMIDIS 3519; details: S. epidermidis 3519, BHI agar, unit assumed
[15] = tested on: PSEUDOMONAS AERUGINOSA K799/61; assay: In vitro antibacterial activity, MIC, BHI agar dilution
[16] = tested on: KLEBSIELLA PNEUMONIAE ATCC 8045; assay: as above; details: K. pneumoniae ATCC 8045, unit assumed
[17] = tested on: PSEUDOMONAS AERUGINOSA BMH10; assay: as above
ESCHERICHIA COLI H560 = assay: as above
[18] = tested on: STAPHYLOCOCCUS AUREUS CMX 642A; assay: as above; details: S. aureus CMX 642A, unit assumed
[19] = tested on: STREPTOCOCCUS BOVIS A-5169; assay: as above; details: S. bovis A-5169, unit assumed
ESCHERICHIA COLI SS = assay: as above; details: E. coli SS, unit assumed
M[…] ATCC 4698 = assay: as above; details: M. luteus ATCC 4698, unit assumed
Protocol: as §1, §2, §3

ESCHERICHIA COLI DC-2 = assay: as above; details: E. coli DC-2, unit assumed
[20] = tested on: STREPTOCOCCUS PYOGENES EES61; assay: as above; details: S. pyogenes EES61, unit assumed
[21] = tested on: STAPHYLOCOCCUS AUREUS CMX 553; assay: as above; details: S. aureus CMX 553, unit assumed

| SMILES | MIC (STR[…] 508) [µg/mL] | MIC (M[…] ATCC 9341) [µg/mL] | MIC (EN[…] ATCC 8043) [µg/mL] | MIC [1] [µg/mL] | MIC [2] [µg/mL] | MIC [3] [µg/mL] | MIC [4] [µg/mL] | MIC (PSEUDOMONAS CEPACIA 296I) [µg/mL] | MIC (ESCHERICHIA COLI KNK 437) [µg/mL] | MIC (CANDIDA ALBICANS CCH 442) [µg/mL] | MIC [8] [µg/mL] | MIC [10] [µg/mL] | MIC [11] [µg/mL] | MIC [12] [µg/mL] | MIC [13] [µg/mL] | MIC [18] [µg/mL] | MIC [19] [µg/mL] | also measured |
| --- | --- | --- | --- | --- | --- | --- | --- | --- | --- | --- | --- | --- | --- | --- | --- | --- | --- | --- |
| CCC1OC(=O)C(C)C(=O)C(C)C(OC2OC(C)CC(N(C)C)C2O)C(C)(OC)CC(C)C2=NCC(CCc3ccccc3)N3C(=O)OC1(C)C3C2C (stereo not drawn) [Example 35] | 0.02 (≈ 0.027 µM) | 0.2 (≈ 0.27 µM) | 0.2 (≈ 0.27 µM) | > 100 | 0.78 (≈ 1.05 µM) | > 100 | 50 (≈ 67.4 µM) | 100 (≈ 135 µM) | 100 (≈ 135 µM) | > 100 | > 100 | > 100 | > 100 | > 100 | 0.39 (≈ 0.526 µM) | 0.78 (≈ 1.05 µM) | 0.01 (≈ 0.0135 µM) | MIC ([5]; S. pyogenes PIU 2548, listed as Ex 35, unit assumed): 0.39 µg/mL (≈ 0.526 µM); MIC ([6]; listed as Ex 35, unit assumed): > 100 µg/mL; MIC [7]: 0.39 µg/mL (≈ 0.526 µM); MIC (ESCHERICHIA COLI JUHL; listed as Ex 35): > 100 µg/mL; MIC ([9]; E. aerogenes ATCC 13048, listed as Ex 35, unit assumed): 100 µg/mL (≈ 135 µM); MIC ([14]; listed as Ex 35): 0.39 µg/mL (≈ 0.526 µM); MIC ([15]; P. aeruginosa K799/61, listed as Ex 35, unit assumed): 3.1 µg/mL (≈ 4.18 µM); MIC [16]: > 100 µg/mL; MIC ([17]; P. aeruginosa BMH10, listed as Ex 35, unit assumed): > 100 µg/mL; MIC (ESCHERICHIA COLI H560; E. coli H560, listed as Ex 35, unit assumed): 50 µg/mL (≈ 67.4 µM) |
| CC[C@H]1OC(=O)[C@H](C)C(=O)[C@H](C)[C@@H](O[C@@H]2O[C@H](C)C[C@H](N(C)C)[C@H]2O)[C@](C)(OC)C[C@@H](C)C2=NC3CN(CC)CC3N3C(=O)O[C@@]1(C)[C@H]3[C@H]2C (stereo partly drawn) [Example 115] | 0.05 (≈ 0.0707 µM) | 0.1 (≈ 0.141 µM) | 0.1 (≈ 0.141 µM) | > 100 | 0.78 (≈ 1.1 µM) | > 100 | > 100 | > 100 | 25 (≈ 35.4 µM) | > 100 | > 100 | > 100 | > 100 | > 100 | 12.5 (≈ 17.7 µM) | 1.56 (≈ 2.21 µM) | ≤ 0.005 | MIC (ESCHERICHIA COLI SS): 0.39 µg/mL (≈ 0.552 µM); MIC (M[…] ATCC 4698): 0.39 µg/mL (≈ 0.552 µM); MIC ([5]; S. pyogenes PIU 2548, unit assumed): 0.78 µg/mL (≈ 1.1 µM); MIC ([6]; unit assumed): > 100 µg/mL; MIC (ESCHERICHIA COLI DC-2): 50 µg/mL (≈ 70.7 µM); MIC (ESCHERICHIA COLI JUHL): > 100 µg/mL; MIC ([9]; E. aerogenes ATCC 13048, unit assumed): 50 µg/mL (≈ 70.7 µM); MIC [14]: 1.56 µg/mL (≈ 2.21 µM); MIC ([15]; P. aeruginosa K799/61, unit assumed): 0.78 µg/mL (≈ 1.1 µM); MIC [20]: 0.05 µg/mL (≈ 0.0707 µM); MIC [21]: 1.56 µg/mL (≈ 2.21 µM); MIC ([17]; P. aeruginosa BMH10, unit assumed): > 100 µg/mL; MIC (ESCHERICHIA COLI H560; E. coli H560, unit assumed): 12.5 µg/mL (≈ 17.7 µM) |
